Laboratory results published in patent publication US9556165B2 (priority 2012, dated 2017).
≈ marks a conversion by molar mass, not a printed value. Read-outs that look alike come from different tables or passages of the source.

Key:
Type in all cases: cell-based
S. maltophilia ICB7569 = assay: MIC determination, broth microdilution (CLSI); settings: for MIC: Stenotrophomonas maltophilia, ICB7569, strain 10
[1] = system: P. aeruginosa 2297 (AmpC wt); assay: MIC determination, broth microdilution (CLSI); settings: for MIC: Pseudomonas aeruginosa, strain 7
E. coli J62 = assay: MIC determination, broth microdilution (CLSI); settings: broth microdilution; for MIC: Escherichia coli, J62, strain 17, read-out: MIC strain 17 (E. coli J62)
E. coli ATCC25922 = assay: MIC determination, broth microdilution (CLSI); settings: for MIC: Escherichia coli, ATCC25922, strain 1
E. coli J62-TEM-3 = assay: MIC determination, broth microdilution (CLSI); settings: broth microdilution; for MIC: Escherichia coli, J62TEM3, read-out: MIC strain 18 (E. coli J62-TEM-3), strain 18
P. aeruginosa PAO1 = assay: MIC determination, broth microdilution (CLSI); settings: for MIC: Pseudomonas aeruginosa, PAO1, strain 6
Bacteria = assay: MIC determination in combination with β-lactamase inhibitors (constant 4 μg/mL)
A. baumannii ATCC15308 = assay: MIC determination, broth microdilution (CLSI); settings: for MIC: Acinetobacter baumannii, ATCC15308, strain 9
[2] = system: P. aeruginosa 2297-con (AmpC derepressed); assay: MIC determination, broth microdilution (CLSI); settings: for MIC: Pseudomonas aeruginosa, read-out: strain 8 MIC, strain 8
C. freundii K21/3034 = assay: MIC determination, broth microdilution (CLSI); settings: for MIC: Citrobacter freundii, K21/3034, strain 4
M. morganii 126/3048 = assay: MIC determination, broth microdilution (CLSI); settings: for MIC: Morganella morganii, 126/3048, strain 5
S. aureus 133 = assay: MIC determination, broth microdilution (CLSI)
E. cloacae 34654 = assay: MIC determination, broth microdilution (CLSI); settings: for MIC: Enterobacter cloacae, 34654, strain 3
K. pneumoniae 60 = assay: MIC determination, broth microdilution (CLSI); settings: for MIC: Klebsiella pneumoniae, 60, strain 2
B. fragilis 6688 = assay: MIC determination, broth microdilution (CLSI); settings: Bacteroides fragilis, 6688, strain 15; broth microdilution; read-out: MIC strain 15 (B. fragilis 6688)
S. pneumoniae 113 = assay: MIC determination, broth microdilution (CLSI); settings: broth microdilution
H. influenzae ATCC 49247 = assay: MIC determination, broth microdilution (CLSI); settings: broth microdilution
[3] = Staphylococcus aureus, 133, strain 14, broth microdilution, read-out: MIC strain 14 (S. aureus 133)

| SMILES | strain 10 MIC (S. maltophilia ICB7569) [µg/mL] | MIC [1] [µg/mL] | MIC strain 17 (E. coli J62) (E. coli J62) [µg/mL] | strain 1 MIC (E. coli ATCC25922) [µg/mL] | MIC strain 18 (E. coli J62-TEM-3) (E. coli J62-TEM-3) [µg/mL] | MIC (P. aeruginosa PAO1) [µg/mL] | MIC strain 19 (E. coli J62-TEM-3 + 4 μg/mL clavulanic acid) (Bacteria) [µg/mL] | MIC strain 20 (E. coli J62-TEM-3 + 4 μg/mL sulbactam) (Bacteria) [µg/mL] | MIC strain 21 (E. coli J62-TEM-3 + 4 μg/mL tazobactam) (Bacteria) [µg/mL] | MIC (A. baumannii ATCC15308) [µg/mL] | strain 8 MIC [2] [µg/mL] | strain 4 MIC (C. freundii K21/3034) [µg/mL] | MIC (S. aureus 133; [3]) [µg/mL] | MIC (S. maltophilia ICB7569) [µg/mL] | MIC (E. coli J62) [µg/mL] | MIC (E. coli ATCC25922) [µg/mL] | MIC (E. coli J62-TEM-3) [µg/mL] | MIC (C. freundii K21/3034) [µg/mL] | MIC (E. cloacae 34654) [µg/mL] | MIC (K. pneumoniae 60) [µg/mL] | other results |
| --- | --- | --- | --- | --- | --- | --- | --- | --- | --- | --- | --- | --- | --- | --- | --- | --- | --- | --- | --- | --- | --- |
| CC1(C)[C@H](NC(=O)/C(=N\OC(CO)COc2ccc(C(=N)N)cc2)c2csc(N)n2)C(=O)N1OS(=O)(=O)O (mixture of isomers) [Example 45A, (2Z)-2-(2-Amino-1,3-thiazol-4-yl)-2-({[(2R and 2S)-1-(4-carbamimidoylphenoxy)-3-hydroxypropan-2-yl]oxy}imino)-N-[(3S)-2,2-dimethyl-4-oxo-1-(sulfooxy)azetidin-3-yl]ethanamide] | 8 | 16 | 0.5 | 0.5 | 1 | 8 | 0.5 | 0.5 | 0.5 | 2 | 8 | 0.25 | 8 |  |  |  |  |  |  |  | strain 5 MIC (M. morganii 126/3048): 0.5 µg/mL; strain 3 MIC (E. cloacae 34654): 1 µg/mL; strain 2 MIC (K. pneumoniae 60): 0.5 µg/mL |
| CC1(C)[C@H](NC(=O)/C(=N\O[C@@H](COc2ccc(C(=N)NC3CC3N)cc2)C(=O)O)c2csc(N)n2)C(=O)N1OS(=O)(=O)O (single isomer, unassigned) [Example 100B] | 32 |  | 4 (≈ 6.24 µM) | 2 | 16 (≈ 25 µM) |  | 2 | 2 | 2 |  | 16 | 2 |  |  |  |  |  |  |  |  | strain 7 MIC [1]: 32 µg/mL; strain 6 MIC (P. aeruginosa PAO1): 16 µg/mL; strain 9 MIC (A. baumannii ATCC15308): 32 µg/mL; strain 3 MIC (E. cloacae 34654): 4 µg/mL; strain 2 MIC (K. pneumoniae 60): 2 µg/mL |
| CC1(C)[C@H](NC(=O)/C(=N\OCCOc2ccc(C(=N)N3CCNCC3)cc2)c2csc(N)n2)C(=O)N1OS(=O)(=O)O [Example 80, (2Z)-2-(2-Amino-1,3-thiazol-4-yl)-N-[(3S)-2,2-dimethyl-4-oxo-1-(sulfooxy)azetidin-3-yl]-2-[(2-{4-[imino(piperazin-1-yl)methyl]phenoxy}ethoxy)imino]ethanamide] |  | 16 (≈ 26.2 µM) |  |  |  | 16 (≈ 26.2 µM) | 0.5 | 0.5 | 0.5 | 2 (≈ 3.28 µM) |  |  | 4 (≈ 6.55 µM) | 32 (≈ 52.4 µM) | 0.5 (≈ 0.819 µM) | 0.25 (≈ 0.409 µM) | 16 (≈ 26.2 µM) | 0.25 (≈ 0.409 µM) | 1 (≈ 1.64 µM) | 0.5 (≈ 0.819 µM) | MIC [2]: 8 µg/mL (≈ 13.1 µM) |
| CC1(C)[C@H](NC(=O)/C(=N\OC(COc2ccc(C(=N)N)cc2)C(N)=O)c2csc(N)n2)C(=O)N1OS(=O)(=O)O (stereo partly drawn) [Example 75, 2-({[(1Z)-1-(2-Amino-1,3-thiazol-4-yl)-2-{[(3S)-2,2-dimethyl-4-oxo-1-(sulfooxy)azetidin-3-yl]amino}-2-oxoethylidene]amino}oxy)-3-(4-carbamimidoylphenoxy)propanamide] |  | 16 (≈ 27.4 µM) |  |  |  | 8 (≈ 13.7 µM) | 0.25 | 0.5 | 0.5 | 2 (≈ 3.42 µM) |  |  | 16 (≈ 27.4 µM) | 4 (≈ 6.84 µM) | 0.5 (≈ 0.855 µM) | 0.25 (≈ 0.428 µM) | 1 (≈ 1.71 µM) | 0.125 (≈ 0.214 µM) | 0.5 (≈ 0.855 µM) | 0.5 (≈ 0.855 µM) | MIC [2]: 8 µg/mL (≈ 13.7 µM); MIC (M. morganii 126/3048): 0.25 µg/mL (≈ 0.428 µM) |
| C[C@H]1[C@H](NC(=O)/C(=N\OCCOc2ccc(C(=N)NNC=O)cc2)c2csc(N)n2)C(=O)N1S(=O)(=O)O [Example 63, (2S,3S)-3-({(2Z)-2-(2-Amino-1,3-thiazol-4-yl)-2-[(2-{4-[(2-formylhydrazinyl)(imino)methyl]phenoxy}ethoxy)imino]acetyl}amino)-2-methyl-4-oxoazetidine-1-sulfonic acid] |  | 8 (≈ 14.4 µM) |  |  |  | 8 (≈ 14.4 µM) | 0.25 | 0.5 | 0.5 | 16 (≈ 28.9 µM) |  |  | 16 (≈ 28.9 µM) | 16 (≈ 28.9 µM) | 0.5 (≈ 0.902 µM) | 0.5 (≈ 0.902 µM) | 8 (≈ 14.4 µM) | 0.25 (≈ 0.451 µM) | 0.5 (≈ 0.902 µM) | 0.25 (≈ 0.451 µM) | MIC (B. fragilis 6688): 16 µg/mL (≈ 28.9 µM); MIC (S. pneumoniae 113; Streptococcus pneumoniae, 113, strain 13, read-out: MIC strain 13 (S. pneumoniae 113)): 0.5 µg/mL (≈ 0.902 µM); MIC (M. morganii 126/3048): 0.5 µg/mL (≈ 0.902 µM); MIC (S. aureus 133; Staphylococcus aureus, 133, strain 11, read-out: strain 11 MIC): 0.5 µg/mL (≈ 0.902 µM); MIC (H. influenzae ATCC 49247; Haemophilus influenzae, ATCC49247, strain 12, read-out: MIC strain 12 (H. influenzae ATCC 49247)): 0.125 µg/mL (≈ 0.225 µM) |
| CC1(C)[C@H](NC(=O)/C(=N\O[C@@H](COc2ccc(C(=N)N[C@H]3CCNC3)cc2)C(=O)O)c2csc(N)n2)C(=O)N1OS(=O)(=O)O [Example 93] |  | 1 (≈ 1.53 µM) |  |  |  | 1 (≈ 1.53 µM) | 0.125 | 0.125 | 0.125 | 1 (≈ 1.53 µM) |  |  | 32 (≈ 48.9 µM) | 4 (≈ 6.11 µM) | 0.125 (≈ 0.191 µM) | ≤ 0.063 | 4 (≈ 6.11 µM) | ≤ 0.063 | 0.125 (≈ 0.191 µM) | 0.125 (≈ 0.191 µM) | MIC [2]: 1 µg/mL (≈ 1.53 µM) |
| CC1(C)[C@H](NC(=O)/C(=N\OC(COc2ccc(C(=N)NCCN)cc2)C(=O)O)c2csc(N)n2)C(=O)N1OS(=O)(=O)O (mixture of isomers) [Example 44B, (2R and 2S)-3-{4-[N-(2-Aminoethyl)carbamimidoyl]phenoxy}-2-({[(1Z)-1-(2-amino-1,3-thiazol-4-yl)-2-{[(3S)-2,2-dimethyl-4-oxo-1-(sulfooxy)azetidin-3-yl]amino}-2-oxoethylidene]amino}oxy)propanoic acid] | 16 |  | 2 | 2 | 4 |  | 2 | 2 | 4 |  | 8 | 2 |  |  |  |  |  |  |  |  | strain 7 MIC [1]: 16 µg/mL; MIC strain 13 (S. pneumoniae 113) (S. pneumoniae 113; strain 13): 4 µg/mL; strain 6 MIC (P. aeruginosa PAO1): 8 µg/mL; strain 9 MIC (A. baumannii ATCC15308): 8 µg/mL; strain 5 MIC (M. morganii 126/3048): 4 µg/mL; strain 11 MIC (S. aureus 133; strain 11): ≦0.063 mg/L; MIC strain 12 (H. influenzae ATCC 49247) (H. influenzae ATCC 49247; strain 12): 0.5 µg/mL; strain 3 MIC (E. cloacae 34654): 4 µg/mL; strain 2 MIC (K. pneumoniae 60): 1 µg/mL |
